# US12552767B2, “3-heteroaryl pyrrolidine and piperidine orexin receptor agonists” (Merck Sharp & Dohme LLC, priority 2020, dated 2026)
# Molecular target: T1, human OX2R (Homo sapiens, UniProt O43614)
# T1 construct: expressed in transfected cells; host or cells: CHO (Chinese hamster ovary) cells, grown under G418 selection
# T1 sequence (O43614 1-444): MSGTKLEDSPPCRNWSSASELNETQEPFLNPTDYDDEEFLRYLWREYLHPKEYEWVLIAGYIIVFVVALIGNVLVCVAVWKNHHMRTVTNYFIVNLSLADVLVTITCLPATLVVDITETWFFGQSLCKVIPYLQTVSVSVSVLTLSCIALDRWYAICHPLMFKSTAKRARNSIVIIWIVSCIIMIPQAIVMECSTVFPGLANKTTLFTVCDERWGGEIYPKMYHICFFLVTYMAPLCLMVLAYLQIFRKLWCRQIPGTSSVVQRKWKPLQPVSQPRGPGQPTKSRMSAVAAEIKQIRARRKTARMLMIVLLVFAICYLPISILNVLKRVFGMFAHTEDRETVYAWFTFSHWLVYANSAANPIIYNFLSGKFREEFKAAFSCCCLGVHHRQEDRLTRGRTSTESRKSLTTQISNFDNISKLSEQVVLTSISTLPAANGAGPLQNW
# Test: IP-One (IPOne) orexin receptor agonist assay in CHO cells expressing human OX2R
# Format: cell-based
# Details: for EC50: CHO cells expressing human OX2R, IP-One IP-1 detection, 2 hours incubation, four parameter logistic fit, read-out: OX2R Potency, EC50; for % of reference agonist maximal effect: human OX2R, percentage of sample raw value/mean max effect (reference compound at 1 uM with 100% activity)
# Text: The utility of the compounds in accordance with the present invention as orexin receptor OX1R and/or OX2R agonists may be readily determined without undue experimentation by methodology well known in the art. Both the OX1R and/or OX2R G-coupled protein receptors (GPCRs) couple through the Gαq signaling pathway, which ultimately promotes calcium mobilization via inositol triphosphate (IP3) production. The half-life of IP-3 is relatively short, being rapidly metabolized to inositol monophosphate (IP-1), which can be readily detected using a commercially available assay kit (IP-One; Cisbio; cat #621PAPEC) coupled with a cell line expressing the target receptor(s) of interest. The utility of the compounds in accordance with the present invention as orexin receptor OX1R and/or OX2R agonists may be determined utilizing this assay.
# In a typical experiment, the OX1 and OX2 receptor agonist activity is determined in accordance with the following general experimental method. Chinese hamster ovary (CHO) cells expressing human OX1R and/or the human OX2R were grown in Iscove's modified DMEM containing glutaMAX™, 1% G418, 100 U/mL penicillin, 100 μg/mL streptomycin and 10% heat-inactivated qualified fetal bovine serum (FBS). The OX2R cells were seeded at 10,000 cells/well/50 μL and the OX1R cells were seeded at 20,000 cells/well/50 μL into 384-well white tissue culture plates (Greiner; cat #781080). All cell/media reagents were from GIBCO-Invitrogen Corp. The seeded cell plate(s) were incubated at 37° C. with 5% CO2 and 85% humidity for 20-24 hours. On the day of the assay, assay-ready compound plates were prepared using an acoustic liquid handler (ECHO; Labcyte), which dispensed sufficient volume of test compound stock (10 mM in DMSO) or 100% DMSO to prepare 10 point, ½-log dilutions in a final volume of 202.5 nL/well in all test wells of a 384-well diamond plate (Labcyte). Following completion of assay-ready plates, importantly, the next three steps were performed with minimal delay: 1) 20 μl of 1× stimulation buffer was added to the compound plate using a Multidrop Combi (small cassette, Thermo Fisher Scientific cat #24073290); 2) culture medium was removed from the cell plate using the Bluewasher plate washer (gentle spin; BlueCatBio); 3) 14 μl of compound/stimulation buffer mixture was added to the cell plate using a Bravo liquid handler (Agilent) prior to incubating cell plates at 37° C. with 5% CO2 and 85% humidity for 1 or 2 hours (OX1R and OX2R, respectively). During this incubation, IP-one detection reagents were prepared (38:1:1 lysis buffer:D2:AB-cryptate reagents). Six μL of mixed detection reagents were added to the cell plate using a Multidrop Combi (small cassette, Thermo Fisher Scientific cat #24073290) and incubated 60 minutes at room temperature in the dark. Fluorescence signal was detected using an Envision plate reader (Perkin Elmer) [LANCE/DELFIA Dual Enh (Em: APC 665; Ex: Cy5 620)].
# For each compound, data were fit to a four parameter logistic fit (ActivityBase software) and the EC50 was reported as the inflection point of the resulting curve. Percent effect for each test compound was determined as the percentage of sample raw value/mean max effect, where the mean max effect was derived from the mean raw value of 32 control wells per assay plate (using Orexin A (cat #003-30) at 1 μM for human OX1R and a reference compound at 1 uM with 100% activity previously established by comparison to Orexin A for human OX2R). The intrinsic orexin receptor agonist activity of a compound which may be used in the present invention may be determined by these assays.
Compound,EC50 [nM],% of reference agonist maximal effect [%]
"COC(=O)N1CCC[C@H](c2[nH]ncc2C(F)(F)F)[C@@H]1CO[C@H]1CC[C@@H](c2ccccc2)CC1 (relative stereo) [Example 25, methyl (CIS)-2-((((CIS)-4-phenylcyclohexyl)oxy)methyl)-3-(4-(trifluoromethyl)-1H-pyrazol-5-yl)piperidine-1-carboxylate]",879,92.8
"CCNC(=O)N1CCCC(c2[nH]ncc2C)C1COC1CCC(C(C)C)CC1 (single isomer, unassigned) [Example 60, N-ethyl-2-(((4-isopropylcyclohexyl)oxy)methyl)-3-(4-methyl-1H-pyrazol-5-yl)piperidine-1-carboxamide]",56.3,100
"CC1(C(=O)N2CCC[C@H](c3cc[nH]n3)[C@@H]2CO[C@H]2CC[C@@H](c3ccccc3)CC2)CC1 (relative stereo) [Example 80, (1-methylcyclopropyl)((CIS)-2-((((CIS)-4-phenylcyclohexyl)oxy)methyl)-3-(1H-pyrazol-3-yl)piperidin-1-yl)methanone]",5550,87.5
"CC1CC1C(=O)N1CCC[C@H](c2cc[nH]n2)[C@@H]1CO[C@H]1CC[C@@H](C(C)C)CC1 (relative stereo) [Example 76, ((CIS)-2-((((CIS)-4-isopropylcyclohexyl)oxy)methyl)-3-(1H-pyrazol-3-yl)piperidin-1-yl)(2-methylcyclopropyl)methanone]",4130,94.6
"C=CCNC(=O)N1CCC[C@H](c2cc[nH]n2)[C@@H]1CO[C@H]1CC[C@@H](C(C)C)CC1 (relative stereo) [Example 120, (CIS)-N-allyl-2-((((CIS)-4-isopropylcyclohexyl)oxy)methyl)-3-(1H-pyrazol-3-yl)piperidine-1-carboxamide]",1140,97.8
"CC[C@H](C)COC(=O)N1CCC[C@H](c2cc[nH]n2)[C@@H]1CO[C@H]1CC[C@@H](c2ccccc2)CC1 [Example 107, (S)-2-methylbutyl (CIS)-2-((((CIS)-4-phenylcyclohexyl)oxy)methyl)-3-(1H-pyrazol-3-yl)piperidine-1-carboxylate]",5090,52.4
"CCNC(=O)N1C(C)CCC(c2ccn[nH]2)C1COC1CCC(C(C)C)CC1 (centres unmarked) [Example 38, N-ethyl-2-(((4-isopropylcyclohexyl)oxy)methyl)-6-methyl-3-(H-pyrazol-5-yl)piperidine-1-carboxamide]",241,95.0
"COC(=O)N1CCC[C@H](c2n[nH]cc2C(C)C)[C@@H]1CO[C@H]1CC[C@@H](c2ccccc2)CC1 (single isomer, unassigned) [Example 49]",795,99.0
"COC(=O)N1CCC[C@H](c2n[nH]cc2C)[C@@H]1CO[C@H]1CC[C@@H](c2cccc(F)c2)CC1 (relative stereo) [Example 15, methyl (CIS)-2-((((CIS)-4-(3-fluorophenyl)cyclohexyl)oxy)methyl)-3-(4-methyl-1H-pyrazol-3-yl)piperidine-1-carboxylate]",117,99.3
"CC[C@H]1C[C@@H]1C(=O)N1CCC[C@H](c2cc[nH]n2)[C@@H]1COC1CCC(c2ccccc2)CC1 (stereo in doubt) [Example 90, 5-((CIS)-1-((TRANS)-2-ethylcyclopropane-1-carbonyl)-2-((((CIS)-4-phenylcyclohexyl)oxy)methyl)piperidin-3-yl)-1H-pyrazol-2-ium 2,2,2-trifluoroacetate]",1140,90.7
"CC(C)C(=O)N1CCC[C@H](c2cc[nH]n2)[C@@H]1CO[C@H]1CC[C@@H](C(C)C)CC1 (relative stereo) [Example 73, 1-((CIS)-2-((((CIS)-4-isopropylcyclohexyl)oxy)methyl)-3-(1H-pyrazol-3-yl)piperidin-1-yl)-2-methylpropan-1-one]",3220,79.3
"CCNC(=O)N1CCC[C@H](c2n[nH]cc2C)[C@@H]1CO[C@H]1CC[C@@H](c2cccc(F)c2)CC1 (single isomer, unassigned) [Example 11]",2.3,100.1
"C=CCC(=O)N1CCC[C@H](c2cc[nH]n2)[C@@H]1CO[C@H]1CC[C@@H](C(C)C)CC1 (relative stereo) [Example 84, 1-((CIS)-2-((((CIS)-4-isopropylcyclohexyl)oxy)methyl)-3-(1H-pyrazol-3-yl)piperidin-1-yl)but-3-en-1-one]",7140,71.1
"COC(=O)COC(=O)N1CCC[C@H](c2cc[nH]n2)[C@@H]1CO[C@H]1CC[C@@H](c2ccccc2)CC1 (relative stereo) [Example 98, 2-methoxy-2-oxoethyl (CIS)-2-((((CIS)-4-phenylcyclohexyl)oxy)methyl)-3-(1H-pyrazol-3-yl)piperidine-1-carboxylate]",1020,98.7
"COC(=O)N1C[C@H](C)C[C@H](c2ccn[nH]2)[C@@H]1CO[C@H]1CC[C@@H](c2ccccc2)CC1 (racemic) [Example 41, (+/−) methyl (2R,3S,5R)-5-methyl-2-((((CIS)-4-phenylcyclohexyl)oxy)methyl)-3-(1H-pyrazol-5-yl)piperidine-1-carboxylate]",2360,95.4
"CC(C)(O)C(=O)N1CCC[C@H](c2cc[nH]n2)[C@@H]1CO[C@H]1CC[C@@H](c2ccccc2)CC1 (relative stereo) [Example 77, 2-hydroxy-2-methyl-1-((CIS)-2-((((CIS)-4-phenylcyclohexyl)oxy)methyl)-3-(1H-pyrazol-3-yl)piperidin-1-yl)propan-1-one]",4340,96.1
"CC(C)[C@H]1CC[C@@H](OC[C@H]2[C@@H](c3cc[nH]n3)CCCN2C(=O)C2CC2(C)C)CC1 (relative stereo) [Example 81, (2,2-dimethylcyclopropyl)((CIS)-2-((((CIS)-4-isopropylcyclohexyl)oxy)methyl)-3-(1H-pyrazol-3-yl)piperidin-1-yl)methanone]",5650,70.0
"C#CCOC(=O)N1CCC[C@H](c2cc[nH]n2)[C@@H]1CO[C@H]1CC[C@@H](c2ccccc2)CC1 (relative stereo) [Example 100, prop-2-yn-1-yl (CIS)-2-((((CIS)-4-phenylcyclohexyl)oxy)methyl)-3-(1H-pyrazol-3-yl)piperidine-1-carboxylate]",2360,61.8
"CC(C)[C@H]1CC[C@@H](OC[C@H]2[C@@H](c3cc[nH]n3)CCCN2C(=O)CCC2CC2)CC1 (relative stereo) [Example 88, 3-cyclopropyl-1-((CIS)-2-((((CIS)-4-isopropylcyclohexyl)oxy)methyl)-3-(1H-pyrazol-3-yl)piperidin-1-yl)propan-1-one]",8980,79
